The values that follow are results of earlier work, collected in patent publication US9643990B2, “Non-caloric sweeteners and methods for synthesizing” (Conagen Inc., priority 2014, dated 2017).

For the series the following is noted: background statement, no method given.
`C=C1C[C@@]23CC[C@H]4[C@@](C)(CCC[C@@]4(C)C(=O)O[C@@H]4O[C@H](CO)[C@@H](O)[C@H](O)[C@H]4O)[C@@H]2CC[C@]1(O[C@@H]1O[C@H](CO)[C@@H](O)[C@H](O)[C@H]1O[C@@H]1O[C@H](CO)[C@@H](O)[C@H](O)[C@H]1O)C3` [stevioside, Stevioside]: the “sweetness relative to sucrose” value is on record as 100-150 times sweeter than sucrose. In the case of Dulcoside A, the “sweetness relative to sucrose” value was “about 30 times sweeter than sucrose”. Take Rebaudioside C: the “sweetness relative to sucrose” value is listed as 40-60 times sweeter than sucrose.
